pIC50: −log10 of the molar value.
Key:
Type in all cases: cell-based
[1] = target: EP2 subtype of the human PGE2 receptor (Homo sapiens, UniProt P43116); test: cAMP antagonism test on the human EP2 receptor (HTRF cAMP detection); settings: hEP2 receptor, read-out: Antagonism hEP2 IC50
Procedure, shortened: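 Cells expressing human EP2 preincubated 20 min at RT with compound (0.8 nM–16.5 μM), then stimulated 60 min with PGE2 (3× solution 1.5 nM) in PBS-IBMX. After 20 min lysis, cAMP measured by competitive HTRF with cAMP-d2 and Eu cryptate anti-cAMP antibody (665/620 nm ratio).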

[2] = target: EP4 subtype of the human PGE2 receptor (Homo sapiens, UniProt P35408); test: cAMP antagonism test on the human EP4 receptor (HTRF cAMP detection); settings: selectivity towards hEP4, IC50 measured by cAMP antagonism test
EP4 subtype of the human PGE2 receptor, sequence (P35408 whole entry): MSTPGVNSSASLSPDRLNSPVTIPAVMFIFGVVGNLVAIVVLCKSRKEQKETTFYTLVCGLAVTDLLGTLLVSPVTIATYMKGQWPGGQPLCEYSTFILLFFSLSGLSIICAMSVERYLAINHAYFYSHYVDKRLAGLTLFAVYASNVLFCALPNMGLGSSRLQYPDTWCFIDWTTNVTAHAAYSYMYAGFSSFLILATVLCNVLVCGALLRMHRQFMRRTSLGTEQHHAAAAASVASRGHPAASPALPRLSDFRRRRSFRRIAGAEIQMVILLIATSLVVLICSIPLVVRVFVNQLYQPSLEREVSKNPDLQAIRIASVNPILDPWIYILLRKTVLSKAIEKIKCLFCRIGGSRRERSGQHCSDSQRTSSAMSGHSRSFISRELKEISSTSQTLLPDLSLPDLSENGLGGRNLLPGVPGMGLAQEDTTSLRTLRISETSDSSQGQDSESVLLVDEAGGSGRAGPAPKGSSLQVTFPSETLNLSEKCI
Procedure, shortened: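 Cells expressing human EP4 preincubated 20 min at RT with compound (0.8 nM–16.5 μM), then stimulated with PGE2 (0.3 nM in 3× solution, with IBMX) 60 min at RT. After lysis, cAMP measured by HTRF competition (665/620 nm ratio); antagonism seen as rise in FRET signal.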

[3] = target: T1, human PGD receptor (Homo sapiens, UniProt Q13258); test: cAMP antagonism test on the human prostaglandin D receptor (HTRF cAMP detection); settings: selectivity towards hDP, IC50 measured by cAMP antagonism test
T1 sequence (Q13258 1-359): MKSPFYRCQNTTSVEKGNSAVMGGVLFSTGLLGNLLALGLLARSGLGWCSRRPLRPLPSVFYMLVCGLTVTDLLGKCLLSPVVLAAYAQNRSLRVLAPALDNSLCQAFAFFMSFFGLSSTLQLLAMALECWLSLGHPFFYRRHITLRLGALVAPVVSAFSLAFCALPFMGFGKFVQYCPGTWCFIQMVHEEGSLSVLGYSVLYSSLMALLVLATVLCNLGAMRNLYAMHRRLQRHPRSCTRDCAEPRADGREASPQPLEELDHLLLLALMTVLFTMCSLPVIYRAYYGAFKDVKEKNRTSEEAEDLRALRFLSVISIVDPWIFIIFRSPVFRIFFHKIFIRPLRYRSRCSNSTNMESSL
Procedure, shortened: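 Cells pre-mixed with cAMP-d2 were preincubated with compound (0.8 nM–16.5 μM) for 20 min at RT, then stimulated with 3× PGD2 solution (6 nM, in PBS-IBMX) for 30 min at RT. After lysis (20 min), HTRF read at 665/620 nm; antagonism seen as rise in FRET ratio.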

EP2 subtype of the human PGE2 receptor, sequence (P43116 whole entry): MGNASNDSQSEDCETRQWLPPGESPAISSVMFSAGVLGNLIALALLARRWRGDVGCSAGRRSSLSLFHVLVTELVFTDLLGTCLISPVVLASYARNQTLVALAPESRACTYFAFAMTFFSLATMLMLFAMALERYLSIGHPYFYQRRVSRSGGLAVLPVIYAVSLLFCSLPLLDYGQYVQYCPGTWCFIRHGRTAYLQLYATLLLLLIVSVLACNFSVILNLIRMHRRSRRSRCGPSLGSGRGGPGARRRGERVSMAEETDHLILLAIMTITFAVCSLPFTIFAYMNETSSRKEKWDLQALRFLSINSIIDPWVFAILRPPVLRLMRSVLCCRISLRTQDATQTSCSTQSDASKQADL

Row | pIC50 [1] | Selectivity hEP2/hEP4 [2] | Selectivity hEP2/hDP [3] | SMILES
1 | 6.23 | xx (xx: 10-100) | xx (xx: 10-100) | Cc1c(C(=O)NCCC(C)(C)O)ccc2nn(CC3CCN(C(=O)c4ccc(Cl)cc4)CC3)cc12 [Example 399, 2-{[1-(4-chlorobenzoyl)piperidin-4-yl]methyl}-N-(3-hydroxy-3-methylbutyl)-4-methyl-2H-indazol-5-carboxamide]
2 | 8.57 | xxx (xxx > 100) | xxx (xxx > 100) | COCCNC(=O)c1ccc2nn(CC3CN(C(=O)c4cc5ccc(OC)cc5n4C)C3)cc2c1C [Example 173, N-(2-methoxyethyl)-2-({1-[(6-methoxy-1-methyl-1H-indol-2-yl)carbonyl]azetidin-3-yl}methyl)-4-methyl-2H-indazol-5-carboxamide]
3 | 8.02 | xxx (xxx > 100) | xxx (xxx > 100) | Cc1c(C(=O)NCC2CCC2)ccc2nn(CC3CCN(C(=O)c4ccc(Oc5ccc(C(F)(F)F)cc5)cc4)CC3)cc12 [Example 403, N-(cyclobutylmethyl)-4-methyl-2-[(1-{4-[4-(trifluoromethyl)phenoxy]benzoyl}-piperidin-4-yl)methyl]-2H-indazol-5-carboxamide]
4 | 7.53 | xxx (xxx > 100) | xxx (xxx > 100) | Cc1c(C(=O)NCC(C)OC2CCC2)ccc2nn(CC3CN(C(=O)c4ccc(Cl)cc4)C3)cc12 (single isomer, unassigned) [Example 155, (S or R)-2-{[1-(4-chlorobenzoyl)azetidin-3-yl]methyl}-N-[2-(cyclobutyloxy)-propyl]-4-methyl-2H-indazol-5-carboxamide]
5 | 7.76 | xxx (xxx > 100) | xxx (xxx > 100) | COCCNC(=O)c1cc2cn(CC3CN(C(=O)c4ccc(SC(F)(F)F)cc4)C3)nc2cc1C [Example 180, N-(2-methoxyethyl)-6-methyl-2-[(1-{4-[(trifluoromethyl)sulphanyl]benzoyl}azetidin-3-yl)methyl]-2H-indazol-5-carboxamide]
6 | 6.84 | xxx (xxx > 100) | xxx (xxx > 100) | COC(C)CNC(=O)c1cc2cn(CC3CN(C(=O)c4ccc(OC(F)(F)F)cc4)C3)nc2cc1C (racemic) [Example 193, (+/−)-N-(2-methoxypropyl)-6-methyl-2-({1-[4-(trifluoromethoxy)benzoyl]-azetidin-3-yl}methyl)-2H-indazol-5-carboxamide]
7 | 8.31 | xxx (xxx > 100) | xxx (xxx > 100) | COCCNC(=O)c1ccc2nn(CC3CCN(C(=O)c4ccc(Oc5ccc(F)cc5)cc4)CC3)cc2c1C [Example 3, 2-({1-[4-(4-fluorophenoxy)benzoyl]piperidin-4-yl}methyl)-N-(2-methoxyethyl)-4-methyl-2H-indazol-5-carboxamide]
8 | 7.53 | xxx (xxx > 100) | xxx (xxx > 100) | Cc1c(C(=O)NCCOCC2CC2)ccc2nn(CC3CN(C(=O)c4ccc(Cl)cc4)C3)cc12 [Example 149, 2-{[1-(4-chlorobenzoyl)azetidin-3-yl]methyl}-N-[2-(cyclopropylmethoxy)ethyl]-4-methyl-2H-indazol-5-carboxamide]
9 | 7.47 | xxx (xxx > 100) | xxx (xxx > 100) | Cc1cc2nn(CC3CN(C(=O)c4ccc(Cl)cc4)C3)cc2cc1C(=O)NCCSC(F)(F)F [Example 189, 2-{[1-(4-chlorobenzoyl)azetidin-3-yl]methyl}-6-methyl-N-{2-[(trifluoromethyl)sulphanyl]ethyl}-2H-indazol-5-carboxamide]
